We go through 13 compounds from US10112926B2 (priority 2014, dated 2018).

Where a name gives a salt, the structure may show the parent alone. Where only a bound is given, the exact number is not on record here.

A word on the IC50: it is the point on the concentration scale where inhibition reaches its midpoint.

The target of this assay is Vps34 (Homo sapiens (Human), UniProt Q8NEB9). The conditions noted are these: read-out: Assay C VPS34 IC50.
Vps34, sequence (Q8NEB9 whole entry): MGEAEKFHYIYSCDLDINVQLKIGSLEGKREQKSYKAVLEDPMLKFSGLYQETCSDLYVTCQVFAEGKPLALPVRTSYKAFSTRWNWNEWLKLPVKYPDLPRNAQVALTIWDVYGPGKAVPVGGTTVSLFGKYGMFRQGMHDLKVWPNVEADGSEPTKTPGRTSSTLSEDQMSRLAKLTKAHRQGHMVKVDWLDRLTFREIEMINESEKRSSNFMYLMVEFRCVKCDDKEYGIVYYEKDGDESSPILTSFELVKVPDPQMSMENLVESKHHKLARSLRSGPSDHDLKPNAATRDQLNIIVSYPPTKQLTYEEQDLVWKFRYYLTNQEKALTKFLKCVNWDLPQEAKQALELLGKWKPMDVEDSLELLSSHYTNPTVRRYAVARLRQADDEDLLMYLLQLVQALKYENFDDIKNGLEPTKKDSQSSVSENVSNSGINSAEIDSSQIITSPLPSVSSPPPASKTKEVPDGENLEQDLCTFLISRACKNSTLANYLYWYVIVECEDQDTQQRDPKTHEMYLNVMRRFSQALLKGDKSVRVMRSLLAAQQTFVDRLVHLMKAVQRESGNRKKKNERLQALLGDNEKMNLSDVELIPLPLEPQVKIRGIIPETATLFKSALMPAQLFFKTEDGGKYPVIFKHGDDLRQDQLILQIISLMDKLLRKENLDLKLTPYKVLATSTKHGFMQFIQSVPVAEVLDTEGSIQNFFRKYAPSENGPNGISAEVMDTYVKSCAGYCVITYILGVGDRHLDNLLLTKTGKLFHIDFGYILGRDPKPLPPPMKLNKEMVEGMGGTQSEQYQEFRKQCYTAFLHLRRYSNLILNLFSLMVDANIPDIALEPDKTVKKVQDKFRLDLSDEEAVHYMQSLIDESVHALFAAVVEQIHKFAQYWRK
Take `Cc1cc(-c2cc(-c3cc(S(=O)(=O)NCCC4(O)CCCC4)ccc3C)cnc2N)on1` [Example 37.16, 3-(6-Amino-5-(3-methylisoxazol-5-yl)pyridin-3-yl)-N-(2-(1-hydroxycyclopentyl)ethyl)-4-methylbenzenesulfonamide]: the IC50 was more than 10 µM.

Turning to `Cc1ncc(-c2cc(-c3cc(S(=O)(=O)NCC4(CO)COC4)ccc3C)cnc2N)s1` [Example 68, 3-(6-Amino-5-(2-methylthiazol-5-yl)pyridin-3-yl)-N-((3-(hydroxymethyl)oxetan-3-yl)methyl)-4-methylbenzenesulfonamide], the half-inhibitory concentration (IC50) was 8.4 µM. `Cc1cc(-c2cc(-c3cc(S(=O)(=O)NCC4(CO)COC4)ccc3C)cnc2N)on1` [Example 50, 3-(6-Amino-5-(3-methylisoxazol-5-yl)pyridin-3-yl)-N-((3-(hydroxymethyl)oxetan-3-yl)methyl)-4-methylbenzenesulfonamide]: the IC50 was more than 10 µM. For `Cc1ncc(-c2cc(-c3cc(S(=O)(=O)NCC(C)(C)O)ccc3C)cnc2N)o1` [Example 6, 3-(6-Amino-5-(2-methyloxazol-5-yl)pyridin-3-yl)-N-(2-hydroxy-2-methylpropyl)-4-methylbenzenesulfonamide], the IC50 is more than 10 µM.

For `Cc1ncc(-c2cc(-c3cc(S(=O)(=O)NCC4CC(O)C4)ccc3C)cnc2N)o1` (stereo not shown) [Example 104.1, 3-(6-amino-5-(2-methyloxazol-5-yl)pyridin-3-yl)-N-((3-hydroxycyclobutyl)methyl)-4-methylbenzenesulfon-amide], the IC50 amounted to 1.1 µM. Then `CCN1CCC[C@H]1CNS(=O)(=O)c1ccc(C)c(-c2cnc(N)c(-c3cc(C)no3)c2)c1` [Example 37.33, (S)-3-(6-Amino-5-(3-methylisoxazol-5-yl)pyridin-3-yl)-N-((1-ethylpyrrolidin-2-yl)methyl)-4-methylbenzenesulfonamide], with more than 10 µM; and `Cc1ccc(S(=O)(=O)NCC(C)(C)O)cc1-c1cnc(N)c(-c2cnn(C)c2C)c1` [Example 61, 3-(6-Amino-5-(1,5-dimethyl-1H-pyrazol-4-yl)pyridin-3-yl)-N-(2-hydroxy-2-methylpropyl)-4-methylbenzenesulfonamide], with more than 10 µM; and `Cc1cnc(-c2cc(-c3cc(S(=O)(=O)NCC(C)(C)O)ccc3C)cnc2N)s1` [Example 90, 3-(6-Amino-5-(5-methylthiazol-2-yl)pyridin-3-yl)-N-(2-hydroxy-2-methylpropyl)-4-methylbenzenesulfonamide], with more than 10 µM. Take `Cc1cc(-c2cc(-c3cc(S(=O)(=O)N4CCOC[C@@H]4C)ccc3C)cnc2N)on1` [Example 19.5, (S)-5-(2-methyl-5-((3-methylmorpholino)sulfon-yl)phenyl)-3-(3-methylisoxazol-5-yl)pyridin-2-amine trifluoroacetic acid salt]: the IC50 is more than 10 µM.

`Cc1cc(-c2cc(-c3cc(S(=O)(=O)N4CC[C@@H](O)C4)ccc3C)cnc2N)on1` [Example 37.24, (R)-1-((3-(6-Amino-5-(3-methylisoxazol-5-yl)pyridin-3-yl)-4-methylphenyl)sulfonyl)pyrrolidin-3-ol]: the IC50 is more than 10 µM. In the case of `Cc1ncc(-c2cc(-c3cc(S(=O)(=O)NCC4(CO)COC4)ccc3C)cnc2N)o1` [Example 67, 3-(6-Amino-5-(2-methyloxazol-5-yl)pyridin-3-yl)-N-((3-(hydroxymethyl)oxetan-3-yl)methyl)-4-methylbenzenesulfonamide], the IC50 was determined as 9.5 µM.

For `Cc1cc(-c2cc(-c3cc(S(=O)(=O)NCC4(O)CCCCC4)ccc3C)cnc2N)on1` [Example 37.9], the IC50 was more than 10 µM.

For `Cc1ncc(-c2cc(-c3cc(S(=O)(=O)NCCCO)ccc3C)cnc2N)o1` [Example 104.6, 3-(6-amino-5-(2-methyloxazol-5-yl)pyridin-3-yl)-N-(3-hydroxypropyl)-4-methylbenzenesulfon-amide], the half-inhibitory concentration (IC50) was 1.9 µM.
